These results are taken from publication PMC11220790 (Molecular Pharmaceutics, 2024).

In brackets after ≈: the same amount, converted by molar mass. Read-outs that look alike come from different tables or passages of the source.

Data set [1] is described as follows: Intrinsic dissolution, rotating disk apparatus. Conditions: for IDR (intrinsic dissolution rate) pH 6.8: phosphate buffer pH 6.8, 37.0 ± 0.5 °C, 100 rpm. It counts as physicochemical. As for the experimental part: Intrinsic dissolution tests were carried out in triplicate using a rotating disk dissolution apparatus. […] The attachments containing the disks were immersed into 500 mL of phosphate buffer, pH 6.8, medium preheated at 37.0 ± 0.5 °C with the metallic rod rotating at 100 rpm.

A short description of data set [2]: Photostability in aqueous media (DTIC degradation / 2-AZA formation kinetics). It counts as physicochemical. As to conditions: for kg, photogeneration rate constant for 2-AZA: 5 mM solution, phosphate buffer pH 6.8, UV irradiation 5 h. The procedure: The mobile phase consisted of a mixture of 0.1% (v/v) aqueous formic acid solution (A) and acetonitrile (B), in a gradient elution mode (0.0–2.5 min: 0% B; 2.5–4.0 min: 0–6% B; 4.0–5.0 min: 6–0% B; and 5.0–7.0 min: 0% B), delivered at a flow rate of 0.8 mL min^–1. […] The method validation followed the ICH Q2 (R2) guideline.[31] The parameters selectivity, linearity, precision, accuracy, and limits of quantitation and detection were evaluated.
A triplicate of freshly prepared solutions at a concentration of 5 mM has been placed into clear glass vials and arranged at 30 cm from a black UV lamp (300 mm, 15 W) to be photoirradiated for 5 h.

Data set [3] can be described thus: Solid-state photodegradation test (black UV lamp chamber). As to conditions: for stability, % 2-AZA found / stability, % DTIC found: after 15 days in photostability chamber.
The nature of data set [4]: Solid-state stability under accelerated degradation conditions (40 °C, 75% RH).
A short description of data set [5]: Thermal analysis (DSC and TG). It counts as physicochemical. As for the experimental part:
Thermogravimetric (TG) experiments were performed on a Shimadzu DTG-60 thermobalance, placing approximately 2.0 ± 0.2 mg of each sample in alumina pans and then heating at 10 °C min^–1 under a nitrogen flow (50 mL min^–1) from 25 to 600 °C. Differential scanning calorimetry (DSC) curves were obtained using a Shimadzu DSC-60 instrument. The samples (1.0 ± 0.2 mg) were placed in aluminum pans and heated at a constant rate of 10 °C min^–1 under a nitrogen flow (50 mL min^–1). According to TG data, the DSC measurements have been conducted until the degradation temperature of each compound. Shimadzu TA-60 software was employed in the data analysis.

The nature of data set [6]: pKa and ΔpKa between DTIC and coformers. As to conditions: between DTIC and the coformer, Table S4.
For data set [7] the following is noted: weak base; cited from earlier work.
A short description of data set [8]: physchem. As to conditions: 37 °C, thermodynamic from solid.
Setting [9] is: freshly prepared (initial) solid sample.
Where [10] appears, read: solid, after 90 days at 40 °C and 75% RH.

Take `CN(C)N=Nc1[nH]cnc1C(N)=O.O=C(O)C=CC(=O)O` [DTIC-HMAL, Dacarbazine Hydrogen-Maleate Salt]: the “increase of IDR compared to DTIC” value in data set [1] (phosphate buffer pH 6.8) was “approximately 7.3 fold”. Further, the “IDR (intrinsic dissolution rate) pH 6.8” value in data set [1] is given as 1.90 ± 0.06 mg cm^–2 min^–1. Besides, the “kg, photogeneration rate constant for 2-AZA” value (“kg … for 2-AZA” below) in data set [2] was 0.371 ± 0.02 mM h^–1. For the same molecule, the “stability, % 2-AZA found” value in data set [3] is reported as 1.7 ± 0.2%. The “stability, % DTIC found” value in data set [3] is reported as 98.4 ± 0.2%; in data set [4] (setting [9]), 99.6 ± 0.4%; in data set [4] (setting [10]), 98.2 ± 0.4%.

For `CN(C)N=Nc1nc[nH]c1C(N)=O.O=C(O)/C=C/C(=O)O` [DTIC-H2FUM, Dacarbazine-Fumaric Acid Cocrystal], the “increase of IDR compared to DTIC” value in data set [1] (phosphate buffer pH 6.8) is reported as around 5.1 fold. The “IDR (intrinsic dissolution rate) pH 6.8” value in data set [1] is 1.31 ± 0.05 mg cm^–2 min^–1. Moreover, the “kg … for 2-AZA” value in data set [2] amounted to 0.363 ± 0.02 mM h^–1. Also, in data set [5], the “Tonset of DSC exothermic degradation peak” value is 172.1 °C and the “decomposition temperature (DSC exothermic degradation peak)” value (“decomposition temperature” below) is 178.1 °C. Besides, in data set [5] (10 °C min^–1, nitrogen flow), the “TG: thermally stable up to / mass loss begins at” value (“TG … to / mass loss begins at” for short) was “around 163 °C” and the “Tonset of TG mass loss” value was 159.4 °C. In data set [3], the “stability, % 2-AZA found” value was 1.1 ± 0.1% and the “stability, % DTIC found” value came to 97.3 ± 0.2%. The “stability, % DTIC found” value in data set [4] (setting [9]) is on record as 99.5 ± 0.3%. The “stability, % DTIC found” value in data set [4] (setting [10]) turned out to be 99.2 ± 0.2%.

As for `CN(C)N=Nc1nc[nH]c1C(N)=O.CN(C)N=Nc1nc[nH]c1C(N)=O.O.O.O.O.O=C(O)CC(O)(CC(=O)O)C(=O)O` [DTIC-HCIT, Dacarbazine Hydrogen-Citrate Salt-Cocrystal], in data set [1] (phosphate buffer pH 6.8), the “IDR compared with DTIC (in words)” value is “equivalent to those of DTIC”. The “IDR (intrinsic dissolution rate) pH 6.8” value in data set [1] is reported as 0.35 ± 0.01 mg cm^–2 min^–1. The “kg … for 2-AZA” value in data set [2] turned out to be 0.338 ± 0.03 mM h^–1. Also, in data set [3], the “stability, % 2-AZA found” value is 1.8 ± 0.2%. The “stability, % DTIC found” value stood at 97.0 ± 0.4% in data set [3], 99.8 ± 0.4% in data set [4] (setting [9]) and 96.0 ± 0.5% in data set [4] (setting [10]).

For the molecule `CN(C)N=Nc1[nH]cnc1C(N)=O.O=C(O)C(=O)O` [DTIC-HOXA, Dacarbazine Hydrogen-Oxalate Salt], the “increase of IDR compared to DTIC” value in data set [1] (phosphate buffer pH 6.8) was determined as 22 fold. Further, the “IDR (intrinsic dissolution rate) pH 6.8” value in data set [1] is listed as 5.58 ± 0.08 mg cm^–2 min^–1. The “kg … for 2-AZA” value in data set [2] is given as 0.386 ± 0.03 mM h^–1. Moreover, in data set [5], the “Tonset of DSC exothermic degradation peak” value came out at 170.2 °C and the “decomposition temperature” value worked out at 175.0 °C. In addition, in data set [5] (10 °C min^–1, nitrogen flow), the “TG … to / mass loss begins at” value is “around 166 °C” and the “Tonset of TG mass loss” value came to 161.7 °C. In data set [3], the “stability, % 2-AZA found” value is listed as 2.2 ± 0.4% and the “stability, % DTIC found” value turned out to be 97.1 ± 0.3%. Also, in data set [4] (setting [9]), the “stability, % DTIC found” value is 100.1 ± 0.1%. Further, in data set [4] (setting [10]), the “stability, % DTIC found” value was 99.9 ± 0.2%.

Take `O=C(O)/C=C\C(=O)O` [Maleic acid]: in data set [6], the “ΔpKa (pKa(base) − pKa(acid))” value worked out at 2.5.

In the case of `O=C(O)/C=C/C(=O)O` [Fumaric acid], in data set [6], the “ΔpKa (pKa(base) − pKa(acid))” value is 1.4.

As usually defined, the pKa is the pH at which an ionisable group is half protonated. Broadly, the solubility is how much of the substance goes into solution per volume. As to `CN(C)/N=N/c1[nH]cnc1C(N)=O` [DTIC, Dacarbazine, reference compound], the “IDR (intrinsic dissolution rate) pH 6.8” value in data set [1] is listed as 0.26 ± 0.02 mg cm^–2 min^–1. Further, the pKa in data set [7] is on record as 4.4. Besides, the “kg … for 2-AZA” value in data set [2] was determined as 0.361 ± 0.04 mM h^–1. Further, the “photodegradation in solution under UV radiation (in words)” value in data set [2] (low-pH and diluted solutions) was “Complete and rapid photodegradation”. Besides, in data set [5] (10 °C min^–1, nitrogen flow), the “TG … to / mass loss begins at” value is 208 °C, the “Tonset of DSC exothermic degradation peak” value turned out to be 210.8 °C, the “Tonset of TG mass loss” value was determined as 206.5 °C and the “decomposition temperature” value amounted to 215.5 °C. In data set [3] (15 days UV exposure), the “reduction in the drug content during the photostability test” value is 5.6%. In addition, the “stability, % DTIC found” value in data set [3] turned out to be 94.4 ± 0.5%. The “stability, % DTIC found” value in data set [4] (setting [9]) came out at 100.0 ± 0.2%. For the same molecule, the “stability, % DTIC found” value in data set [4] (setting [10]) is listed as 99.8 ± 0.3%. Further, the solubility at 24 h in data set [8] (HCl solution, pH 1.2, simulated gastric fluid) was 20.4 ± 0.2 mg/mL (≈ 112 mM). Besides, in data set [8] (acetate buffer, pH 4.5, aqueous buffer), the solubility at 24 h came out at 3.4 ± 0.2 mg/mL (≈ 18.7 mM).
